Key:
sham or SCI animals = assay: Conditioned Place Preference (CPP), addictive potential; details: for CPP to morphine: added to morphine at either dose (1.0 or 2.5 mg/kg), sham or SCI animals
Method: Methods: 55 female, Long-Evans rats were tested for mechanical thresholds prior to receiving a spinal contusion (SCI) or sham surgery. […] Conditioned Place Preference (CPP) to each drug combination was assessed to determine the addictive potential of that specific combination.
Mechanical thresholds were assessed in 3-5 month old female Long-Evans rats before and ˜21 days after a mild, traumatic SCI (contusion model). […] Conditioned place preference was performed under each drug condition (5 days alternating drug/vehicle pairing, with testing on day 6).

sham animals = assay: Mechanical pain thresholds / analgesia in sham (healthy control) animals; assay type: in vivo, Long-Evans rats; details: FIG. 2 Panel A, acute treatment
Method: (§1) Methods: 55 female, Long-Evans rats were tested for mechanical thresholds prior to receiving a spinal contusion (SCI) or sham surgery. Mechanical pain thresholds were measured 21-27 days post-surgery under the following conditions: Morphine alone (1.0 or 2.5 mg/kg); Morphine (1.0 or 2.5 mg/kg)+0.1 mg/kg Pramipexole (PRAM; D3R agonist); Morphine (2.5 mg/kg)+0.1 mg/kg SCH23390 (SCH: D1R antagonist); 0.1 mg/kg Pramipexole alone; 0.1 mg/kg SCH23390 alone. Conditioned Place Preference (CPP) to each drug combination was assessed to determine the addictive potential of that specific combination.
(§2) Mechanical thresholds were assessed in 3-5 month old female Long-Evans rats before and ˜21 days after a mild, traumatic SCI (contusion model). Thresholds were re-assessed after i.p. injection of: Morphine 1.0 mg/kg with and without 0.1 mg/kg pramipexole (PRAM) or Morphine 2.5 mg/kg with and without 0.1 mg/kg PRAM. Conditioned place preference was performed under each drug condition (5 days alternating drug/vehicle pairing, with testing on day 6). Western blotting determined expression of D3R, D1R and u-opioid receptor (MOR) in the lumbar spinal cord.

SCI animals = assay: Mechanical pain thresholds / analgesia in animals with spinal cord injury (contusion model); assay type: in vivo, Long-Evans rats; details: FIG. 2 Panel B
Method: as §1, §2

[1] = system: rat model of chronic neuropathic pain; assay: Pain withdrawal responses in a rat model of chronic neuropathic pain (pilot studies); assay type: in vivo; details: low-dose morphine

SMILES	CPP to morphine (sham or SCI animals)	analgesia (sham animals)	analgesia (SCI animals)	modulating pain withdrawal responses / opioid efficacy [1]	analgesic effect after long-term application (animals; FIG. 3, long-term application, 2 weeks)	development of morphine tolerance (animals; parallel preliminary studies)	preference for the drug-paired chamber (sham or SCI animals; FIG. 4)
CCCN[C@H]1CCc2nc(N)sc2C1 [PRAM, pramipexole]	Neither PRAM nor SCH exacerbated CPP to morphine						
CN1CCc2cc(Cl)c(O)cc2[C@@H](c2ccccc2)C1 [SCH, SCH23390]	Neither PRAM nor SCH exacerbated CPP to morphine						
CN1CC[C@]23c4c5ccc(O)c4O[C@H]2[C@@H](O)C=C[C@H]3[C@H]1C5 [morphine]		improves analgesia significantly	neither morphine nor PRAM have any analgesic effect	became ineffective	complete loss of analgesic effect after 2 weeks	became tolerant	induces preference for the drug-paired chamber
